Measured values reported in PMC10991509, “A phase I study of ATR inhibitor gartisertib (M4344) as a single agent and in combination with carboplatin in patients with advanced solid tumours” (British Journal of Cancer, 2024).
Like-named read-outs stand apart in the source and are kept apart here.

Columns and labels:
[1] = Plasma pharmacokinetics of gartisertib; assay type: in vivo, human; conditions: for clearance: read-out: drug clearance
Description: (§1) The secondary objectives for cohorts A, A2, and B1 were to assess antitumour activity and PK. Endpoints associated with antitumour activity included confirmed best overall response (BOR), according to RECIST v1.1. PK endpoints included PK parameter estimates, derived from plasma concentration-time data. Please see the Supplementary Materials for details on further PK endpoints and assessments as well as the PK assessment schedule (Supplementary Table S2).
Categorical variables (such as incidence of a TEAE) were summarised using frequency counts and percentages, along with 2-sided exact Clopper–Pearson 95% confidence intervals (CIs). TEAEs observed were summarised by System Organ Class and Preferred Term according to the Medical Dictionary for Regulatory Activities (versions 23.0 and 24.0). Standard non-compartmental methods were used to determine PK parameters.
Blood samples were collected according to the Schedule of Assessments in order to measure gartisertib (and metabolites where appropriate) plasma concentrations. PK parameters included maximum observed plasma concentration (Cmax), time to reach maximum observed plasma concentration (Tmax), terminal half-life, area under the concentration–time curve (AUC) from time zero extrapolated to infinity, apparent oral clearance, and apparent volume of distribution during the terminal phase as well as Cmax and AUC accumulation ratios. Please see Table S2 for the PK assessment schedule.

advanced solid tumours = assay: Antitumour activity (RECIST v1.1); assay type: in vivo, human
Description: as §1
In cohort C, the primary objectives were to evaluate safety, tolerability, and antitumour activity of gartisertib monotherapy in patients with LOF mutations in ARID1A (cohort C1), ATRX and/or DAXX (cohort C2), or ATM (cohort C3). The primary endpoints included safety (treatment-emergent AEs [TEAEs] and treatment-related TEAEs; laboratory abnormalities; clinically significant abnormal vital signs; and clinically significant abnormal ECGs and antitumour activity (objective response [OR], defined as confirmed BOR of complete response [CR] or partial response [PR], according to RECIST v1.1). Secondary endpoints included duration of response; progression-free survival [PFS]) as well as PK parameter estimates of gartisertib in patients with LOF mutations. The Supplementary Materials provide further information on efficacy assessments and definitions.
In cohorts A, A2, B1, and C, antitumor activity was assessed in patients with measurable disease with standard criteria (Response Evaluation Criteria in Solid Tumors version 1.1 [RECIST v1.1]). In patients with prostate cancer, Prostate Cancer Clinical Trials Working Group 2 (PCWG2) criteria were used. Patients underwent an imaging scan at screening to document extent of initial disease and in all cohorts of the study, patients underwent repeat imaging scans. Imaging scans were locally assessed for all study cohorts. Bone scans were performed as were evaluations of serum […] in patients with ovarian cancer and serum prostate-specific antigen in patients with prostate cancer.
In addition, for cohort C, tumor assessments according to RECIST v1.1 were performed at baseline and at completion of every two cycles of treatment for the first six cycles and then every three cycles thereafter until disease progression or initiation of a new anticancer therapy line. Objective response, best overall response, duration of response and progression-free survival will be determined by the investigator based on these tumor assessments, with objective responses needing to be confirmed at a scan no fewer than 4 weeks after the original evaluation. Independent review may be performed if necessary.
Objective response was defined as a confirmed assessment of complete response or partial response by the investigator using RECIST v1.1. Confirmed best overall response was defined as the best confirmed response from start of treatment. Tumor assessments performed after start of further anticancer treatment line were not used to determine best overall response. Progression-free survival was defined as the time between the start of study treatment to progressive disease (PD) or death (in case PD is not observed prior to death).

SMILES: Nc1nn2cc(F)cnc2c1C(=O)Nc1cncc(F)c1N1CCC(C(=O)N2CCN(C3COC3)CC2)CC1 [gartisertib, Gartisertib]
- accumulation following multiple gartisertib doses ([1]; cohort A): less than 2 fold
- urinary excretion of gartisertib ([1]; cohort A2): minor route of elimination
- time median plasma concentrations remained above the lower limit of quantification (1.00 ng/mL) ([1]; cohort A2, 250 mg dose): ≤ 24 h
- time median plasma concentrations remained above the lower limit of quantification (1.00 ng/mL) ([1]; cohort A2, doses other than 250 mg): up to 8 hours
- accumulation compared with day 1 ([1]; cohort A, 450 mg dose): no accumulation
- accumulation of AUC0-t at day 8 compared with day 1 ([1]; cohort A, 1200 mg dose group): 1.9 fold
- accumulation of Cmax at day 8 compared with day 1 ([1]; cohort A, 1200 mg dose group): 1.6 fold
- time of peak median plasma gartisertib concentration ([1]; cohort A, 1200 mg group): 4 hours post dose
- time median gartisertib concentrations remained above the lowest level of quantification (1.00 ng/mL) ([1]; cohort A, 450, 700, 1050 and 1200 mg groups): up to 24 hours post dose
- exposure (Cmax and AUC) versus dose ([1]; cohorts A, A2, and B1, high variability): dose-proportional exposure
- clearance ([1]; human, plasma, oral, cohort A2, day 1): 3450 to 8580 mL/min
- clearance ([1]; human, plasma, oral, cohort A2, day 8): 3980 to 7070 mL/min
- half-life ([1]; human, plasma, oral, cohorts A, A2, and B1, read-out: half-life (t1/2)): 2 to 5 h
- half-life ([1]; human, plasma, oral, cohort A, four highest dose levels, read-out: geometric mean terminal half-life): 2.22 to 4.61 h
- Vd ([1]; human, plasma, oral, cohort A, four highest dose levels, read-out: volume of distribution based on the terminal elimination phase following extravascular administration): 1480 to 4060 L
- cBOR Not evaluable (advanced solid tumours; Cohort A2, 100 mg BID (N=7)): 2 (28.6) n patients (%)
- cBOR Partial response (advanced solid tumours; Cohort A2, 100 mg BID (N=7)): 0 (0.0) n patients (%)
- cBOR Progressive disease (advanced solid tumours; Cohort A2, 100 mg BID (N=7)): 4 (57.1) n patients (%)
- cBOR Stable disease (advanced solid tumours; Cohort A2, 100 mg BID (N=7)): 1 (14.3) n patients (%)
- cBOR Not evaluable (advanced solid tumours; Cohort A2, 150 mg QD (N=4)): 0 (0.0) n patients (%)
- cBOR Partial response (advanced solid tumours; Cohort A2, 150 mg QD (N=4)): 0 (0.0) n patients (%)
- cBOR Progressive disease (advanced solid tumours; Cohort A2, 150 mg QD (N=4)): 3 (75.0) n patients (%)
- cBOR Stable disease (advanced solid tumours; Cohort A2, 150 mg QD (N=4)): 1 (25.0) n patients (%)
- cBOR Not evaluable (advanced solid tumours; Cohort A2, 250 mg QD (N=7)): 0 (0.0) n patients (%)
- cBOR Partial response (advanced solid tumours; Cohort A2, 250 mg QD (N=7)): 0 (0.0) n patients (%)
- cBOR Progressive disease (advanced solid tumours; Cohort A2, 250 mg QD (N=7)): 3 (42.9) n patients (%)
- cBOR Stable disease (advanced solid tumours; Cohort A2, 250 mg QD (N=7)): 4 (57.1) n patients (%)
- cBOR Not evaluable (advanced solid tumours; Cohort A2, 350 mg QD (N=5)): 0 (0.0) n patients (%)
- cBOR Partial response (advanced solid tumours; Cohort A2, 350 mg QD (N=5)): 0 (0.0) n patients (%)
- cBOR Progressive disease (advanced solid tumours; Cohort A2, 350 mg QD (N=5)): 3 (60.0) n patients (%)
- cBOR Stable disease (advanced solid tumours; Cohort A2, 350 mg QD (N=5)): 2 (40.0) n patients (%)
- cBOR Not evaluable (advanced solid tumours; Cohort A, 10 mg BIW (N=1)): 1 (100.0) n patients (%)
- cBOR Partial response (advanced solid tumours; Cohort A, 10 mg BIW (N=1)): 0 (0.0) n patients (%)
- cBOR Progressive disease (advanced solid tumours; Cohort A, 10 mg BIW (N=1)): 0 (0.0) n patients (%)
- cBOR Stable disease (advanced solid tumours; Cohort A, 10 mg BIW (N=1)): 0 (0.0) n patients (%)
- cBOR Not evaluable (advanced solid tumours; Cohort A, 20 mg BIW (N=1)): 0 (0.0) n patients (%)
- cBOR Partial response (advanced solid tumours; Cohort A, 20 mg BIW (N=1)): 0 (0.0) n patients (%)
- cBOR Progressive disease (advanced solid tumours; Cohort A, 20 mg BIW (N=1)): 0 (0.0) n patients (%)
- cBOR Stable disease (advanced solid tumours; Cohort A, 20 mg BIW (N=1)): 1 (100.0) n patients (%)
- cBOR Not evaluable (advanced solid tumours; Cohort A, 40 mg BIW (N=1)): 0 (0.0) n patients (%)
- cBOR Partial response (advanced solid tumours; Cohort A, 40 mg BIW (N=1)): 0 (0.0) n patients (%)
- cBOR Progressive disease (advanced solid tumours; Cohort A, 40 mg BIW (N=1)): 1 (100.0) n patients (%)
- cBOR Stable disease (advanced solid tumours; Cohort A, 40 mg BIW (N=1)): 0 (0.0) n patients (%)
- cBOR Not evaluable (advanced solid tumours; Cohort A, 80 mg BIW (N=1)): 0 (0.0) n patients (%)
- cBOR Partial response (advanced solid tumours; Cohort A, 80 mg BIW (N=1)): 0 (0.0) n patients (%)
- cBOR Progressive disease (advanced solid tumours; Cohort A, 80 mg BIW (N=1)): 1 (100.0) n patients (%)
- cBOR Stable disease (advanced solid tumours; Cohort A, 80 mg BIW (N=1)): 0 (0.0) n patients (%)
- cBOR Not evaluable (advanced solid tumours; Cohort A, 160 mg BIW (N=1)): 0 (0.0) n patients (%)
- cBOR Partial response (advanced solid tumours; Cohort A, 160 mg BIW (N=1)): 0 (0.0) n patients (%)
- cBOR Progressive disease (advanced solid tumours; Cohort A, 160 mg BIW (N=1)): 1 (100.0) n patients (%)
- cBOR Stable disease (advanced solid tumours; Cohort A, 160 mg BIW (N=1)): 0 (0.0) n patients (%)
- cBOR Not evaluable (advanced solid tumours; Cohort A, 300 mg BIW (N=1)): 0 (0.0) n patients (%)
- cBOR Partial response (advanced solid tumours; Cohort A, 300 mg BIW (N=1)): 0 (0.0) n patients (%)
- cBOR Progressive disease (advanced solid tumours; Cohort A, 300 mg BIW (N=1)): 1 (100.0) n patients (%)
- cBOR Stable disease (advanced solid tumours; Cohort A, 300 mg BIW (N=1)): 0 (0.0) n patients (%)
- cBOR Not evaluable (advanced solid tumours; Cohort A, 450 mg BIW (N=3)): 0 (0.0) n patients (%)
- cBOR Partial response (advanced solid tumours; Cohort A, 450 mg BIW (N=3)): 0 (0.0) n patients (%)
- cBOR Progressive disease (advanced solid tumours; Cohort A, 450 mg BIW (N=3)): 1 (33.3) n patients (%)
- cBOR Stable disease (advanced solid tumours; Cohort A, 450 mg BIW (N=3)): 2 (66.7) n patients (%)
- cBOR Not evaluable (advanced solid tumours; Cohort A, 700 mg BIW (N=6)): 2 (33.3) n patients (%)
- cBOR Partial response (advanced solid tumours; Cohort A, 700 mg BIW (N=6)): 0 (0.0) n patients (%)
- cBOR Progressive disease (advanced solid tumours; Cohort A, 700 mg BIW (N=6)): 2 (33.3) n patients (%)
- cBOR Stable disease (advanced solid tumours; Cohort A, 700 mg BIW (N=6)): 2 (33.3) n patients (%)
- cBOR Not evaluable (advanced solid tumours; Cohort A, 1050 mg BIW (N=7)): 1 (14.3) n patients (%)
- cBOR Partial response (advanced solid tumours; Cohort A, 1050 mg BIW (N=7)): 0 (0.0) n patients (%)
- cBOR Progressive disease (advanced solid tumours; Cohort A, 1050 mg BIW (N=7)): 5 (71.4) n patients (%)
- cBOR Stable disease (advanced solid tumours; Cohort A, 1050 mg BIW (N=7)): 1 (14.3) n patients (%)
- cBOR Not evaluable (advanced solid tumours; Cohort A, 1200 mg BIW (N=4)): 2 (50.0) n patients (%)
- cBOR Partial response (advanced solid tumours; Cohort A, 1200 mg BIW (N=4)): 0 (0.0) n patients (%)
- cBOR Progressive disease (advanced solid tumours; Cohort A, 1200 mg BIW (N=4)): 1 (25.0) n patients (%)
- cBOR Stable disease (advanced solid tumours; Cohort A, 1200 mg BIW (N=4)): 1 (25.0) n patients (%)
- cBOR Not evaluable (advanced solid tumours; Cohort C, 250 mg QD (N=13)): 2 (15.4) n patients (%)
- cBOR Partial response (advanced solid tumours; Cohort C, 250 mg QD (N=13)): 0 (0.0) n patients (%)
- cBOR Progressive disease (advanced solid tumours; Cohort C, 250 mg QD (N=13)): 8 (61.5) n patients (%)
- cBOR Stable disease (advanced solid tumours; Cohort C, 250 mg QD (N=13)): 3 (23.1) n patients (%)
- BOR of SD (advanced solid tumours; cohort A2 (full analysis set 23)): 34.8%
- BOR of SD (advanced solid tumours; cohort A (full analysis set 26)): 26.9%
- BOR of SD (advanced solid tumours; cohort C (full analysis set 13)): 23.1%
- median PFS interval (advanced solid tumours; cohort C, 95% CI 0.8, 2.1): 1.6 months
- disease control according to selected biomarker status (ARID1A, ATRX/DAXX, ATM) (advanced solid tumours; cohorts A2 and C): No difference in disease control
- patients with SD for >6 months (advanced solid tumours; three patients across all study cohorts): 3.1%
